System: Staphylococcus aureus
Test: Antibacterial activity against Staphylococcus aureus at 200 ug/100uL after 24 hrs by agar well diffusion method
Format: functional

Row | Compound | inhibition zone (IZ)
1 | C[C@@H]([C@H]1CC[C@H]2[C@@H]3CC[C@H]4C[C@@H](NC(=O)c5ccccc5)CC[C@]4(C)[C@H]3CC[C@]12C)N(C)C [EPIPACHYSAMINE D] | 7 mm
2 | C[C@@H]([C@H]1CC[C@H]2[C@@H]3CC[C@H]4C[C@@H](N(C)C(=O)/C=C/c5ccccc5)CC[C@]4(C)[C@H]3CC[C@]12C)N(C)C [SALIGCINNAMIDE] | 12 mm
3 | C[C@@H]([C@H]1CC[C@H]2[C@@H]3CC[C@H]4C[C@@H](N(C)Cc5ccccc5)CC[C@]4(C)[C@H]3CC[C@]12C)N(C)C | 9 mm
4 | CC1(C)S[C@@H]2[C@H](NC(=O)[C@H](N)c3ccccc3)C(=O)N2[C@H]1C(=O)O [AMPICILLIN] | 18 mm
5 | C[C@@H]([C@H]1CC[C@H]2[C@@H]3CC[C@H]4C[C@@H](N(C)C(=O)c5ccccc5)CC[C@]4(C)[C@H]3CC[C@]12C)N(C)C | 12 mm
6 | C[C@@H]([C@H]1CC[C@H]2[C@@H]3CC[C@H]4C[C@@H](N(C)C(=O)CCc5ccccc5)CC[C@]4(C)[C@H]3CC[C@]12C)N(C)C | 11 mm
7 | CC1(C)S[C@@H]2[C@H](NC(=O)[C@H](N)c3ccc(O)cc3)C(=O)N2[C@H]1C(=O)O [AMOXICILLIN] | 16 mm

System: Salmonella typhi
Test: Antibacterial activity against Salmonella typhi at 200 ug/100uL after 24 hrs by agar well diffusion method
Format: functional, Salmonella enterica subsp. enterica serovar Typhi

Row | Compound | inhibition zone (IZ)
8 | C[C@@H]([C@H]1CC[C@H]2[C@@H]3CC[C@H]4C[C@@H](N(C)C(=O)/C=C/c5ccccc5)CC[C@]4(C)[C@H]3CC[C@]12C)N(C)C [SALIGCINNAMIDE] | 6 mm
9 | CC1(C)S[C@@H]2[C@H](NC(=O)[C@H](N)c3ccccc3)C(=O)N2[C@H]1C(=O)O [AMPICILLIN] | 12 mm
10 | C[C@@H]([C@H]1CC[C@H]2[C@@H]3CC[C@H]4C[C@@H](N(C)C(=O)c5ccccc5)CC[C@]4(C)[C@H]3CC[C@]12C)N(C)C | 6 mm
11 | CC1(C)S[C@@H]2[C@H](NC(=O)[C@H](N)c3ccc(O)cc3)C(=O)N2[C@H]1C(=O)O [AMOXICILLIN] | 12 mm

System: Proteus mirabilis
Test: Antibacterial activity against Proteus mirabilis after at 200 ug/100uL 24 hrs by agar well diffusion method
Format: functional

Row | Compound | inhibition zone (IZ)
12 | C[C@@H]([C@H]1CC[C@H]2[C@@H]3CC[C@H]4C[C@@H](N(C)C(=O)/C=C/c5ccccc5)CC[C@]4(C)[C@H]3CC[C@]12C)N(C)C [SALIGCINNAMIDE] | 7 mm
13 | CC1(C)S[C@@H]2[C@H](NC(=O)[C@H](N)c3ccccc3)C(=O)N2[C@H]1C(=O)O [AMPICILLIN] | 17 mm
14 | C[C@@H]([C@H]1CC[C@H]2[C@@H]3CC[C@H]4C[C@@H](N(C)C(=O)c5ccccc5)CC[C@]4(C)[C@H]3CC[C@]12C)N(C)C | 8 mm
15 | CC1(C)S[C@@H]2[C@H](NC(=O)[C@H](N)c3ccc(O)cc3)C(=O)N2[C@H]1C(=O)O [AMOXICILLIN] | 16 mm

System: Klebsiella pneumoniae
Test: Antibacterial activity against Klebsiella pneumoniae at 200 ug/100uL after 24 hrs by agar well diffusion method
Format: functional

Row | Compound | inhibition zone (IZ)
16 | C[C@@H]([C@H]1CC[C@H]2[C@@H]3CC[C@H]4C[C@@H](N(C)C(=O)/C=C/c5ccccc5)CC[C@]4(C)[C@H]3CC[C@]12C)N(C)C [SALIGCINNAMIDE] | 9 mm
17 | C[C@@H]([C@H]1CC[C@H]2[C@@H]3CC[C@H]4C[C@@H](N(C)Cc5ccccc5)CC[C@]4(C)[C@H]3CC[C@]12C)N(C)C | 6 mm
18 | CC1(C)S[C@@H]2[C@H](NC(=O)[C@H](N)c3ccccc3)C(=O)N2[C@H]1C(=O)O [AMPICILLIN] | 17 mm
19 | C[C@@H]([C@H]1CC[C@H]2[C@@H]3CC[C@H]4C[C@@H](N(C)C(=O)c5ccccc5)CC[C@]4(C)[C@H]3CC[C@]12C)N(C)C | 8 mm
20 | C[C@@H]([C@H]1CC[C@H]2[C@@H]3CC[C@H]4C[C@@H](N(C)C(=O)CCc5ccccc5)CC[C@]4(C)[C@H]3CC[C@]12C)N(C)C | 10.5 mm
21 | CC1(C)S[C@@H]2[C@H](NC(=O)[C@H](N)c3ccc(O)cc3)C(=O)N2[C@H]1C(=O)O [AMOXICILLIN] | 17 mm

System: Pseudomonas aeruginosa
Test: Antibacterial activity against Pseudomonas aeruginosa at 200 ug/100uL after 24 hrs by agar well diffusion method
Format: functional

Row | Compound | inhibition zone (IZ)
22 | C[C@@H]([C@H]1CC[C@H]2[C@@H]3CC[C@H]4C[C@@H](N(C)C(=O)/C=C/c5ccccc5)CC[C@]4(C)[C@H]3CC[C@]12C)N(C)C [SALIGCINNAMIDE] | 6 mm
23 | C[C@@H]([C@H]1CC[C@H]2[C@@H]3CC[C@H]4C[C@@H](N(C)Cc5ccccc5)CC[C@]4(C)[C@H]3CC[C@]12C)N(C)C | 5.5 mm
24 | C[C@@H]([C@H]1CC[C@H]2[C@@H]3CC[C@H]4C[C@@H](N(C)CCCc5ccccc5)CC[C@]4(C)[C@H]3CC[C@]12C)N(C)C | 5.5 mm
25 | CC1(C)S[C@@H]2[C@H](NC(=O)[C@H](N)c3ccccc3)C(=O)N2[C@H]1C(=O)O [AMPICILLIN] | 15 mm
26 | C[C@@H]([C@H]1CC[C@H]2[C@@H]3CC[C@H]4C[C@@H](N(C)C(=O)c5ccccc5)CC[C@]4(C)[C@H]3CC[C@]12C)N(C)C | 6 mm
27 | C[C@@H]([C@H]1CC[C@H]2[C@@H]3CC[C@H]4C[C@@H](N(C)C(=O)CCc5ccccc5)CC[C@]4(C)[C@H]3CC[C@]12C)N(C)C | 7.5 mm
28 | CC1(C)S[C@@H]2[C@H](NC(=O)[C@H](N)c3ccc(O)cc3)C(=O)N2[C@H]1C(=O)O [AMOXICILLIN] | 15 mm

System: Shigella boydii
Test: Antibacterial activity against Shigella boydii at 200 ug/100uL after 24 hrs by agar well diffusion method
Format: functional

Row | Compound | inhibition zone (IZ)
29 | C[C@@H]([C@H]1CC[C@H]2[C@@H]3CC[C@H]4C[C@@H](N(C)C(=O)/C=C/c5ccccc5)CC[C@]4(C)[C@H]3CC[C@]12C)N(C)C [SALIGCINNAMIDE] | 6 mm
30 | CC1(C)S[C@@H]2[C@H](NC(=O)[C@H](N)c3ccccc3)C(=O)N2[C@H]1C(=O)O [AMPICILLIN] | 17 mm
31 | C[C@@H]([C@H]1CC[C@H]2[C@@H]3CC[C@H]4C[C@@H](N(C)C(=O)c5ccccc5)CC[C@]4(C)[C@H]3CC[C@]12C)N(C)C | 6 mm
32 | CC1(C)S[C@@H]2[C@H](NC(=O)[C@H](N)c3ccc(O)cc3)C(=O)N2[C@H]1C(=O)O [AMOXICILLIN] | 17 mm

System: Streptococcus pyogenes
Test: Antibacterial activity against Streptococcus pyogenes at 200 ug/100uL after 24 hrs by agar well diffusion method
Format: functional

Row | Compound | inhibition zone (IZ)
33 | C[C@@H]([C@H]1CC[C@H]2[C@@H]3CC[C@H]4C[C@@H](N(C)C(=O)/C=C/c5ccccc5)CC[C@]4(C)[C@H]3CC[C@]12C)N(C)C [SALIGCINNAMIDE] | 8 mm
34 | CC1(C)S[C@@H]2[C@H](NC(=O)[C@H](N)c3ccccc3)C(=O)N2[C@H]1C(=O)O [AMPICILLIN] | 17 mm
35 | C[C@@H]([C@H]1CC[C@H]2[C@@H]3CC[C@H]4C[C@@H](N(C)C(=O)c5ccccc5)CC[C@]4(C)[C@H]3CC[C@]12C)N(C)C | 6 mm
36 | CC1(C)S[C@@H]2[C@H](NC(=O)[C@H](N)c3ccc(O)cc3)C(=O)N2[C@H]1C(=O)O [AMOXICILLIN] | 16 mm

Source: ChEMBL document CHEMBL1141744, “Antibacterial steroidal alkaloids from Sarcococca saligna” (1998)
